Measured values reported in patent US20210221785A1, “AMINO-PYRIMIDONYL DERIVATIVES, A PROCESS FOR THEIR PREPARATION AND PHARMACEUTICAL COMPOSITIONS CONTAINING THEM” (LES LABORATOIRES SERVIER, priority 2018, published 2021).
Where a name gives a salt, the structure may show the parent alone.

Tests used:
[1] = test system: Z138 mantle cell lymphoma tumour cell lines; assay: In vitro cytotoxicity, MTT assay; type: cell-based; details: Z138 cells exposed to the test compounds for 96 hours, cell viability vs DMSO treated cells
Protocol: The cytotoxicity studies were evaluated by MTT [3-(4,5-dimethylthiazol-2-yl)-2,5-diphenyltetrazolium bromide] assay and carried out on Z138 mantle cell lymphoma tumour cell lines. The cells are distributed onto microplates and exposed to the test compounds for 96 hours. MTT is then added for 4 hours and converted by NAD(P)H-dependent cellular oxidoreductase enzymes in formazan, which has a purple color. The viable cell number is proportional to the production of formuan salts and cell viability can be quantified by the absorbance of the solution at 540 nm with a speetrophotometer (Carmichael et al., Cancer Res. 1987, 47, 936-942).

[2] = molecular target: T1, His-His-USP7 (aa208-560, |C315A|) (Homo sapiens, UniProt Q93009, C315A); assay: Evaluation of the inhibition of USP7 by the Fluorescence Intensity (FLINT) readings; type: biochemical; details: 0.25 nM His-His-USP7, compound incubated 60 minutes at 30° C., 500 nM Ubiquitin-Rhodamine-110 substrate; 50% reduction in kinetic rate
T1 construct: His-His-USP7 (aa208-560, |C315A|); His-His (N)
Procedure, shortened: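 0.25 nM His-His-USP7 (aa208–560, C315A) preincubated 60 min at 30 °C with compound in 100 mM Bicine pH 8.0, 0.01% Triton X-100, 1 mM TCEP, 10% DMSO. Reaction started with 500 nM ubiquitin-rhodamine-110 and fluorescence (Ex485/Em535) read every 3 min for 21 min. IC50 derived from kinetic-rate reduction over an 11-point curve, 4-parameter fit.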

T1 sequence (Q93009 208-560 C315A): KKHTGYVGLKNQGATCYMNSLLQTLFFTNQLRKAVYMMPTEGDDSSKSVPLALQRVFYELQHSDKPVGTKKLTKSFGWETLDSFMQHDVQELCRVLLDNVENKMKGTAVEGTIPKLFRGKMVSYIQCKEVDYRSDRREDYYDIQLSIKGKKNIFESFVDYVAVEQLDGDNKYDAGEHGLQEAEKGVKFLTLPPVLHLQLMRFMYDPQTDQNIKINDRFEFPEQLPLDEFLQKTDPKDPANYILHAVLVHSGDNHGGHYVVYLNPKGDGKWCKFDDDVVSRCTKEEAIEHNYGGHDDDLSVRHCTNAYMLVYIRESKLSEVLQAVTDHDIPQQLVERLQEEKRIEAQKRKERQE

| SMILES | IC50 ([1]; Homo sapiens, Z-138, 96 h) | IC50 [2] | IC50 [1] | IC50 ([1]; Homo sapiens, Z-138) |
| --- | --- | --- | --- | --- |
| Nc1c(Oc2ccc(F)cc2)ncn(CC2(O)CCN(C(=O)[C@@H]3CC[C@@](F)(Cc4ccccn4)C[C@H]3c3ccccc3)CC2)c1=O (relative stereo) [Example 126, rel-5-amino-3-[(1-{[(1R,2R,4S)-4-fluoro-2-phenyl-4-(pyridin-2-ylmethyl)cyclohexyl]carbonyl)}-4-hydroxypiperidin-4-yl)methyl]-6-(4-fluorophenoxy)pyrimidin-4-one] | 0.17 µM | 79.5 nM | – | – |
| CC(N)c1ccc(Oc2ncn(CC3(O)CCN(C(=O)[C@@H]4CCC(F)(F)C[C@H]4c4ccccc4)CC3)c(=O)c2N)cc1 (single isomer, unassigned; diastereoisomer 1) [Example 54] | 0.273 µM | 7.4 nM | – | – |
| CC(N)c1ccc(Oc2ncn(CC3(O)CCN(C(=O)[C@@H]4CCC(F)(F)C[C@H]4c4ccccc4)CC3)c(=O)c2N)cc1 (single isomer, unassigned; diastereoisomer 2) [Example 55] | – | 8.69 nM | 0.264 µM | – |
| Nc1c(Oc2ccccc2)ncn(CC2(O)CCN(C(=O)[C@@H]3CCC(F)(F)C[C@H]3c3ccccc3)CC2)c1=O [Example 1, 5-amino-3-({1-[(1R,2R)-4,4-difluoro-2-phenylcyclohexane-1-carbonyl]-4-hydroxypiperidin-4-yl}methyl)-6-phenoxypyrimidin-4(3H)-one] | 0.0866 µM | 43.7 nM | – | – |
| COc1ccc(Oc2ncn(CC3(O)CCN(C(=O)[C@@H]4CCC(F)(F)C[C@H]4c4ccccc4)CC3)c(=O)c2N)cc1 [Example 3, 5-amino-3-({1-[(1R,2R)-4,4-difluoro-2-phenylcyclohexane-1-carbonyl]-4-hydroxypiperidin-4-yl}methyl)-6-(4-methoxyphenoxy)pyrimidin-4(3H)-one] | 0.0595 µM | 80.2 nM | – | – |
| Nc1c(Oc2ccc(F)cc2)ncn(CC2(O)CCN(C(=O)[C@@H]3CCC(F)(F)C[C@H]3c3ccccc3)CC2)c1=O [Example 5, 5-amino-3-({1-[(1R,2R)-4,4-difluoro-2-phenylcyclohexane-1-carbonyl]-4-hydroxypiperidin-4-yl}methyl)-6-(4-fluorophenoxy)pyrimidin-4(3H)-one] | 0.0435 µM | 63.4 nM | – | – |
| CNc1c(Oc2ccccc2)ncn(CC2(O)CCN(C(=O)[C@@H]3CCC(F)(F)C[C@H]3c3ccccc3)CC2)c1=O [Example 9, 3-({1-[(1R4R)-4,4-difluoro-2-phenylcyclohexane-1-carbonyl]-4-hydroxypiperidin-4-yl}methyl)-5-(methylamino)-6-phenoxypyrimidin-4(3H)-one] | 0.287 µM | 85.8 nM | – | – |
| Nc1c(Oc2ccc(Cl)cc2)ncn(CC2(O)CCN(C(=O)[C@@H]3CCC(F)(F)C[C@H]3c3ccccc3)CC2)c1=O [Example 11, 5-amino-6-(4-chlorophenoxy)-3-({1-[(1R,2R)-4,4-difluoro-2-phenylcyclohexane-1-carbonyl]-4-hydroxypiperidin-4-yl}methyl)pyrimidin-4(3H)-one] | 0.197 µM | 58.7 nM | – | – |
| COc1cc(Oc2ncn(CC3(O)CCN(C(=O)[C@@H]4CCC(F)(F)C[C@H]4c4ccccc4)CC3)c(=O)c2N)ccc1Cl [Example 12, 5-amino-6-(4-chloro-3-methoxy-phenoxy)-3-({1-[(1R,2R)-4,4-difluoro-2-phenylcyclohexane-1-carbonyl]-4-hydroxypiperidin-4-yl}methyl)pyrimidin-4(3H)-one] | – | 57.1 nM | – | 0.0909 µM |
| Nc1c(Oc2ccc3c(c2)OCO3)ncn(CC2(O)CCN(C(=O)[C@@H]3CCC(F)(F)C[C@H]3c3ccccc3)CC2)c1=O [Example 14] | 0.0413 µM | 71.8 nM | – | – |
| COc1cc(O)cc(Oc2ncn(CC3(O)CCN(C(=O)[C@@H]4CCC(F)(F)C[C@H]4c4ccccc4)CC3)c(=O)c2N)c1 [Example 15, 5-amino-3-({1-[(1R,2R)-4,4-difluoro-2-phenylcyclohexane-1-carbonyl]-4-hydroxypiperidin-4-yl}methyl)-6-(3-hydroxy-5-methoxyphenoxy)pyrimidin-4(3H)-one] | 0.0195 µM | 23.5 nM | – | – |
| COc1cc(Oc2ncn(CC3(O)CCN(C(=O)[C@@H]4CCC(F)(F)C[C@H]4c4ccccc4)CC3)c(=O)c2N)ccc1F [Example 16, 5-amino-3-({1-[(1R,2R)-4,4-difluoro-2-phenylcyclohexane-1-carbonyl]-4-hydroxypiperidin-4-yl}methyl)-6-(4-fluoro-3-methoxyphenoxy)pyrimidin-4(3H)-one] | 0.0424 µM | 51.6 nM | – | – |
| Cc1cccc(Oc2ncn(CC3(O)CCN(C(=O)[C@@H]4CCC(F)(F)C[C@H]4c4ccccc4)CC3)c(=O)c2N)c1 [Example 19, 5-amino-3-({1-[(1R,2R)-4,4-difluoro-2-phenylcyclohexane-1-carbonyl]-4-hydroxypiperidin-4-yl}methyl)-6-(3-methylphenoxy)pyrimidin-4(3H)-one] | 0.0716 µM | 83.1 nM | – | – |
| Nc1c(Oc2cccc(Br)c2)ncn(CC2(O)CCN(C(=O)[C@@H]3CCC(F)(F)C[C@H]3c3ccccc3)CC2)c1=O [Example 20, 5-amino-6-(3-bromophenoxy)-3-([1-{(1R,2R)-4,4-difluoro-2-phenylcyclohexane-1-carbonyl]-4-hydroxypiperidin-4-yl}methyl)pyrimidin-4(3H)-one] | 0.146 µM | 105 nM | – | – |
| Nc1c(Oc2ccc(CO)cc2)ncn(CC2(O)CCN(C(=O)[C@@H]3CCC(F)(F)C[C@H]3c3ccccc3)CC2)c1=O [Example 23, 5-amino-3-({1-[(1R,2R)-4,4-difluoro-2-phenylcyclohexane-1-carbonyl]-4-hydroxypiperidin-4-yl}methyl)-6-[4-(hydroymethyl)phenoxy]pyrimidin-4(3H)-one] | 0.22 µM | 40 nM | – | – |
| N#Cc1ccc(Oc2ncn(CC3(O)CCN(C(=O)[C@@H]4CCC(F)(F)C[C@H]4c4ccccc4)CC3)c(=O)c2N)cc1 [Example 24, 4-{[5-amino-1-({1-[(1R,2R)-4,4-difluoro-2-phenylcyclohexane-1-carbonyl]-4-hydroxypiperidin-4-yl}methyl)-6-oxo-1,6-dihydropyrimidin-4-yl]oxy}benzonitrile] | 0.165 µM | 30 nM | – | – |
| Nc1c(Oc2ccc3c(c2)CNCC3)ncn(CC2(O)CCN(C(=O)[C@@H]3CCC(F)(F)C[C@H]3c3ccccc3)CC2)c1=O [Example 26, 5-amino-3-({1-[(1R,2R)-4,4-difluoro-2-phenylcyclohexane-1-carbonyl]-4-hydroxypiperidin-4-yl}methyl)-6-[(1,2,3,4-tetrahydroisoquinolin-7-yl)oxy]pyrimidin-4(3H)-one, hydrochloride] | 0.406 µM | 20 nM | – | – |
| Nc1c(Oc2cccc(CO)c2)ncn(CC2(O)CCN(C(=O)[C@@H]3CCC(F)(F)C[C@H]3c3ccccc3)CC2)c1=O [Example 28, 5-amino-3-({1-[(1R,2R)-4,4-difluoro-2-phenylcyclohexane-1-carbonyl]-4-hydroxypiperidin-4-yl}methyl)-6-[3-(hydroxymethyl)phenoxy]pyrimidin-4(3H)-one] | 0.052 µM | 53 nM | – | – |
| Nc1c(Oc2ccc3c(c2)CCNC3)ncn(CC2(O)CCN(C(=O)[C@@H]3CCC(F)(F)C[C@H]3c3ccccc3)CC2)c1=O [Example 31, 5-amino-3-({1-[(1R,2R)-4,4-difluoro-2-phenylcyclohexane-1-carbonyl]-4-hydroxypiperidin-4-yl}methyl)-6-[(1,2,3,4-tetrahydroisoquinolin-6-yl)oxy]pyrimidin-4(3H)-one] | 0.648 µM | 47 nM | – | – |
| Nc1c(Oc2ccc3c(c2)CNC3)ncn(CC2(O)CCN(C(=O)[C@@H]3CCC(F)(F)C[C@H]3c3ccccc3)CC2)c1=O [Example 32, 5-amino-3-({1-[(1R,2R)-4,4-difluoro-2-phenylcyclohexane-1-carbonyl]-4-hydroxypiperidin-4-yl}methyl)-6-[(2,3-dihydro-1H-isoindol-5-yl)oxy]pyrimidin-4(3H)-one] | 0.896 µM | 32 nM | – | – |
| Nc1c(Oc2ccc(OCCO)cc2)ncn(CC2(O)CCN(C(=O)[C@@H]3CCC(F)(F)C[C@H]3c3ccccc3)CC2)c1=O [Example 33, 5-amino-3-({1-[(1R,2R)-4,4-difluoro-2-phenylcyclohexane-1-carbonyl]-4-hydroxypiperidin-4-yl}methyl)-6-[4-(2-hydroxyethoxy)phenoxy]pyrimidin-4(3H)-one] | 0.0646 µM | 45.9 nM | – | – |
| Nc1c(Oc2ccc(C3CCCN3)cc2)ncn(CC2(O)CCN(C(=O)[C@@H]3CCC(F)(F)C[C@H]3c3ccccc3)CC2)c1=O (stereo partly drawn) [Example 34, 5-amino-3({1-[(1R,2R)-4,4-difluoro-2-phenylcyclohexane-1-carbonyl]-4-hydroxypiperidin-4-yl}methyl)-6-[4-(pyrrolidin-2-yl)phenoxy]pyrimidin-4(3H)-one] | 0.52 µM | 10.8 nM | – | – |
| Nc1c(Oc2ccc3cn[nH]c3c2)ncn(CC2(O)CCN(C(=O)[C@@H]3CCC(F)(F)C[C@H]3c3ccccc3)CC2)c1=O [Example 35, 5-amino-3-({1-[(1R,2R)-4,4-difluoro-2-phenylcyclohexane-1-carbonyl]-4-hydroypiperidin-4-yl}methyl)-6-[(1H-indazol-6-yl)oxy]pyrimidin-4(3H)-one] | 0.081 µM | 34.2 nM | – | – |
